Read-outs that look alike come from different tables or passages of the source.
What was measured:
[1] = tested on: DU 145 Human Prostate Carcinoma Xenografts; details: DU145; for Mean Score: tumor score 1 to 10, group mean
In short: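 Male NCr-nude mice bearing subcutaneous DU145 fragments (five per group) received one i.v. dose at each agent's estimated MTD on Day 1, with vehicle controls; the study ran to Day 91. Survival was counted until tumour reached 1.5 g. Complete or partial response was scored by palpability or shrinkage below Day-1 size.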

[2] = tested on: A375 Human Melanoma Xenografts; details: A375; for Mean Score: tumor score 1 to 10, group mean
In short: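 Female NCr-nude mice carrying subcutaneous flank A375 implants (1 mm^3), six per group (Taxotere seven). Single i.v. dose on Day 1 at each agent's estimated MTD (Taxotere 70 mg/kg), vehicle i.v. for controls; study ended Day 60. Survival days counted to 2.0 g tumor; complete response = non-palpable tumor at study end, partial = smaller than on Day 1.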

[3] = tested on: Panc-1 Human Pancreatic Carcinoma Xenografts
In short: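 Female NCr-nude mice with subcutaneous flank Panc-1 fragments, six per group, dosed i.v. once on Day 1 at estimated MTD (Taxotere 70 mg/kg); vehicle controls. Survival taken as days until tumor reached 1.5 g; complete response = nonpalpable tumor at Day 63, partial = smaller than Day 1 size.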

[4] = tested on: VM46 Human Colon Carcinoma Xenografts; details: for MDS (n): days until tumor reached 1.5 g
In short: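 Female NCr-nude mice bearing subcutaneous VM46 colon carcinoma fragments, six per group, given compounds i.v. once on Day 1 at estimated MTD; vehicle i.v. for controls. Endpoints to Day 64: mean days of survival (tumor reaching 1.5 g), toxic deaths, survivors, complete/partial responses and stable disease.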

[5] = tested on: A375 Human Melanoma Xenograft
Description: Female nu/nu mice (6-8 weeks of age; implanted subcutaneously with 1 mm^3 A375 melanoma fragments in the flank) were sorted into one control and four treatment groups of ten mice each (group mean tumor size of 96-98 mg). […] The study was terminated on Day 60.
The mean days of survival is the number of days after which a neoplasm reached a size of 2.0 g and the animal was euthanized. A complete response is obtained if the tumor is not palpable at the end of the study. A partial response is obtained if the tumor shrinks to a size smaller than its size on Day 1 of the study.

[6] = Taxol i.p. 18 mg/kg qd x 5, 5 mice, Day 91
[7] = i.v. qd x 1 (mg/kg: Taxol 24, 1351 107.6, 1393 72.6, 1401 107.6, 1418 107.6, 1424 195.1), 5 mice/group, Day 91
[8] = i.v. qd x 1 (mg/kg: Taxol 24, 1351 107.6, 1393 72.6, 1401 107.6, 1418 107.6, 1424 195.1)
[9] = Taxol i.p. 18 mg/kg qd x 5, 6 mice, Day 60
[10] = i.v. qd x 1 (mg/kg: Taxol 24, 1351 107.6, 1393 72.6, 1401 107.6, 1418 107.6, 1424 195.1, Taxotere 70), Day 60
[11] = i.v. qd x 1 (mg/kg: Taxol 24, 1351 107.6, 1393 72.6, 1401 107.6, 1418 107.6, 1424 195.1, Taxotere 70)
[12] = 15 mg/kg i.p. qd x 5, 6 mice/group, study end Day 63
[13] = 24 mg/kg i.v. qd x 1 as two split doses, 6 mice/group, study end Day 63
[14] = 15 mg/kg i.p. qd x 5, 6 mice/group, study end Day 64
[15] = 24 mg/kg i.v. qd x 1, 6 mice/group, study end Day 64
[16] = VM46, Taxol 24 mg/kg i.v. qd x 1, 6 mice, Day 64
[17] = 40 mg/kg single oral bolus, 10 mice/group, study end Day 60
[18] = Panc-1, i.v. qd x 1 (mg/kg: 1393 72.6, 1418 107.6), 6 mice/group, Day 63
[19] = 72.6 mg/kg i.v. qd x 1, 6 mice/group, study end Day 64
[20] = 104 mg/kg single oral bolus, 10 mice/group, study end Day 60
[21] = oral 36.5 mg/kg on Days 1, 15, 29 and 43 (q14dx3, cumulative 109.5 mg/kg), 10 mice/group, study end Day 60
[22] = oral 73 mg/kg on Day 1, then 21.9 mg/kg on Days 11, 21, 31 and 41 (cumulative 160.6 mg/kg), 10 mice/group, study end Day 60

CC(=O)O[C@H]1C(=O)[C@@]2(C)[C@H]([C@H](OC(=O)c3ccccc3)[C@]3(O)C[C@H](OC(=O)[C@H](O)[C@@H](NC(=O)c4ccccc4)c4ccccc4)C(C)=C1C3(C)C)[C@]1(OC(C)=O)CO[C@@H]1C[C@@H]2O [Taxol, paclitaxel, reference compound]
increase in survival compared to Group 1 controls ([1]; Taxol 24 mg/kg i.v. qd x 1): 9% | toxicity ([1]; Taxol i.p. 18 mg/kg qd x 5): highly toxic | weight loss ([1]; Taxol i.p. 18 mg/kg qd x 5): more than 20% | Complete Response [1, 6]: 0 | Partial Response [1, 6]: 0 | Stable Disease [1, 6]: 0 | Survivors [1, 6]: 0 | Mean Score ([1]; Taxol i.p. 18 mg/kg qd x 5): 0 ± 0 | MDS (n) ([1]; i.v. qd x 1 (mg/kg: Taxol 24, 1351 107.6, 1393 72.6, 1401 107.6, 1418 107.6, 1424 195.1), 5 mice/group, 1.5 g cut-off, Day 91): 37.4 ± 8.9 (3) days | Complete Response [1, 7]: 0 | Partial Response [1, 7]: 0 | Stable Disease [1, 7]: 1 | Survivors [1, 7]: 1 | Mean Score [1, 8]: 2 ± 1 | toxicity ([2]; Taxol i.p. 18 mg/kg qd x 5): highly toxic | Complete Response [2, 9]: 0 | Partial Response [2, 9]: 0 | Stable Disease [2, 9]: 0 | Survivors [2, 9]: 0 | Mean Score ([2]; Taxol i.p. 18 mg/kg qd x 5): 0±0 | MDS (n) ([2]; i.v. qd x 1 (mg/kg: Taxol 24, 1351 107.6, 1393 72.6, 1401 107.6, 1418 107.6, 1424 195.1, Taxotere 70), 2.0 g cut-off, Day 60): 18.1 ± 0.6 (4) days | Complete Response [2, 10]: 0 | Partial Response [2, 10]: 0 | Stable Disease [2, 10]: 0 | Survivors [2, 10]: 0 | Toxic Deaths [2, 10]: 2 | Mean Score [2, 11]: 0.8 ± 0.3 | survival extension compared to Group 1 controls ([2]; i.v. qd x 1 (mg/kg: Taxol 24, 1393 72.6, 1418 107.6, Taxotere 70)): 26% | Complete Response [3, 12]: 0 | Mean Score [3, 12]: 1.2 ± 1.2 | Partial Response [3, 12]: 1 | Stable Disease [3, 12]: 0 | Survivors [3, 12]: 1 | Toxic Deaths [3, 12]: 4 | Complete Response [3, 13]: 0 | Mean Score [3, 13]: 2.2 ± 0.8 | Partial Response [3, 13]: 0 | Stable Disease [3, 13]: 1 | Survivors [3, 13]: 1 | Toxic Deaths [3, 13]: 1 | MDS (n) ([3]; 24 mg/kg i.v. qd x 1 as two split doses, 6 mice/group, study end Day 63, days until tumor reached 1.5 g): 34.7 ± 3.4 days | Toxic Deaths ([3]; Panc-1, Taxol i.p. 15 mg/kg qd x 5, 6 mice): four | Toxic Deaths ([3]; Panc-1, i.v. qd x 1 (mg/kg: Taxol 24, 1351 75.32, 1393 72.6, 1401 107.6, 1418 107.6, 1424 195.1), 6 mice/group): One | MDS ([3]; Panc-1, i.v. qd x 1 (mg/kg: Taxol 24, 1351 75.32, 1393 72.6, 1401 107.6, 1418 107.6, 1424 195.1), 6 mice/group, 1.5 g cut-off, Day 63): 34.7 days | Stable Disease ([3]; Panc-1, i.v. qd x 1 (mg/kg: Taxol 24, 1393 72.6, 1418 107.6), 6 mice/group, Day 63): one | Complete Response [4, 14]: 0 | Mean Score [4, 14]: 1.8 ± 1.3 | Partial Response [4, 14]: 1 | Stable Disease [4, 14]: 0 | Survivors [4, 14]: 1 | Toxic Deaths [4, 14]: 3 | MDS (n) [4, 14]: 36.1 ± 12.2 (2) days | Complete Response [4, 15]: 0 | Mean Score [4, 15]: 3.8 ± 1.4 | Partial Response [4, 15]: 1 | Stable Disease [4, 15]: 1 | Survivors [4, 15]: 2 | Toxic Deaths [4, 15]: 0 | Partial Response [4, 16]: one | Stable Disease [4, 16]: one | toxicity ([4]; VM46, Taxol i.p. 15 mg/kg qd x 5): excessively toxic | mortalities ([4]; VM46, Taxol i.p. 15 mg/kg qd x 5, 6 mice): three | Complete Response [5, 17]: 0 | Partial Response [5, 17]: 1 | Stable Disease [5, 17]: 1 | Survivors [5, 17]: 2 | Toxic Deaths [5, 17]: 0 | MDS (n) ([5]; 40 mg/kg single oral bolus, 10 mice/group, study end Day 60, days until tumor reached 2.0 g): 23.7 ± 3.0 (8) days | activity ([5]; A375, paclitaxel 40 mg/kg single oral bolus (Group 2)): not active

CCC(=O)O[C@H]1C[C@H]2OC[C@@]2(OC(C)=O)[C@H]2[C@H](OC(=O)c3ccccc3)[C@]3(O)C[C@H](OC(=O)[C@H](O)[C@@H](NC(=O)OC(C)(C)C)c4ccco4)C(C)=C([C@@H](O)C(=O)[C@]12C)C3(C)C [Compound 1393, 3'-Desphenyl-3'-(2-furyl)-7-propionyl taxotere]
complete response rate ([1]; 1393 72.6 mg/kg i.v. qd x 1): 60% | Complete Response [1, 7]: 3 | Partial Response [1, 7]: 1 | Stable Disease [1, 7]: 0 | Mean Score [1, 8]: 8 ± 1.5 | Complete Response [2, 10]: 0 | Partial Response [2, 10]: 0 | Stable Disease [2, 10]: 0 | Toxic Deaths [2, 10]: 0 | Mean Score [2, 11]: 3±0 | Complete Response [3, 18]: 1 | Partial Responses [3, 18]: 4 | Toxic Deaths ([3]; i.v. qd x 1 at estimated MTD, 6 mice/group, study end Day 63): 0 | Complete Response [4, 19]: 1 | Mean Score [4, 19]: 3.2 ± 1.4 | Partial Response [4, 19]: 0 | Stable Disease [4, 19]: 0 | Toxic Deaths [4, 19]: 0 | MDS (n) [4, 19]: 46.2 ± 6.1 (5) days | Complete Response [5, 20]: 9 | Partial Response [5, 20]: 0 | Stable Disease [5, 20]: 0 | Toxic Deaths [5, 20]: 0 | Complete Response [5, 21]: 0 | Partial Response [5, 21]: 1 | Stable Disease [5, 21]: 3 | Toxic Deaths [5, 21]: 0 | Complete Response [5, 22]: 8 | Partial Response [5, 22]: 1 | Stable Disease [5, 22]: 0 | Toxic Deaths [5, 22]: 1

From patent EP1285918A1, “C7 Ester substituted taxanes as antitumor agents” (Florida State University Research Foundation, Inc., priority 2001, dated 2003)
